Experimental findings from patent publication US20120058172A1, “PLANT EXTRACTS FOR USE IN BRAIN MODULATION” (Intermed Discovery GmbH, priority 2006, published 2012) are described below.

The assay has as its system mouse. The experiment in a line: Marble burying test in the mouse. It is filed as in vivo. Conditions: for Number of marbles covered by sawdust, mean ± s.e.m.: 15 mice per group. The text has this:
More preferably, psychotropic activity can be tested using the Marble Burying Test in the mouse. The method, which detects anxiolytic/tranquillizing activity, follows that described by Broekkamp et al (Eur. J. Pharmacol., 126, 223-229, 1986). The principle of the test is that mice exposed to novel objects (marbles) will bury them in the sawdust floor covering. Anxiolytics decrease the number of marbles buried at non-sedative doses. For the experiment, mice (Male Rj: NMRI mice, weighing 20-30 g (max. range per experiment=5 g) at the beginning of the experiments, obtained from Elevage Janvier, 53940 Le Genest-Saint-Isle, France) are individually placed in transparent plastic cages (33×21×18 cm) with 5 cm of sawdust on the floor. 25 marbles are grouped in the centre of the cage. The cage is covered with an inverted plastic cage. Each test cage, together with the marbles, is impregnated with mouse odor before-hand by leaving 10 mice in the cage for 15 minutes. These mice then play no further role in the experiment. The mice are treated with test substance intraperitoneally (i.p.) 30 min before the test. Administration volume: 10 ml/kg, different dosages are tested (e.g. 2 or more dosages selected from 1, 3, 10, 30 and 100 mg/kg). The test substance is tested for solubility by cold stirring of the highest intended dose for 10 minutes in physiological saline. If soluble, physiological saline serves as vehicle. If insoluble, the test substance is homogenized and dispersed using a mortar and a pestle in 0.2% hydroxypropylmethylcellulose (HPMC) in physiological saline which then serves as the vehicle. Unless indicated otherwise, doses are prepared W/V (stock) and then V/V (serial dilutions) for test substances in solution, and by separate weighings (W/V) for test substances in suspension. Preparations are made freshly for each day of administration and precautions are taken to preserve the homogeneity of suspensions (if applicable) during the period of administration. As control, vehicle is administered. The number of marbles covered by sawdust (2/3 or more) is then counted at the end of a 30 minute test. 15 mice are studied per group. The test is performed blind. Each test substance is evaluated at 3 doses, administered i.p. 30 minutes before the test, and compared with a vehicle control group. Fluoxetine (32 mg/kg i.p.), administered under the same experimental conditions, is used as reference substance. Each experiment therefore includes 5 groups. Data are analyzed by comparing treated groups with vehicle control using unpaired Student's t tests, using commercial software (Microsoft Excel®, SAS® Version 8.2, GB Stat® Version 6.5). With this test system, with compounds of the formula I a decrease of the number of marbles buried and thus an anxiolytic effect can be found, preferably a significant effect (p<0.01) by an i.p. dosage in the range from 1 to 100 mg/kg.
The test is performed as described above.

`CNCCC(Oc1ccc(C(F)(F)F)cc1)c1ccccc1` (centres unmarked) [FLUOXETINE, Fluoxetine, reference compound]: under “32 mg/kg i.p. −30 min”, the “Number of marbles covered by sawdust, % change from control (Vehicle)” value is −100% and the “Number of marbles covered by sawdust, mean ± s.e.m.” value is given as 0.0 ± 0.0.

With `CC(C)C[C@@H](c1c(O)c(C=O)c(O)c(C=O)c1O)[C@@]1(C)CC[C@@H]2[C@@H]1[C@H]1[C@@H](CC[C@@]2(C)O)C1(C)C` [Macrocarpale A, Macrocarpal A], the “Number of marbles covered by sawdust, % change from control (Vehicle)” value is on record as −5% (1 mg/kg i.p. −30 min), −37% (3 mg/kg i.p. −30 min) and −53% (10 mg/kg i.p. −30 min). Moreover, the “Number of marbles covered by sawdust, mean ± s.e.m.” value is given as 15.7 ± 2.5 NS (1 mg/kg i.p. −30 min), 10.4 ± 2.3 NS (3 mg/kg i.p. −30 min) and 7.7 ± 2.4 (10 mg/kg i.p. −30 min).
